Values quoted from earlier work as cited in patent US5985868A, “Methods and compositions for treating androgen-dependant diseases using optically pure R-(-) casodex” (Sepracor Inc., priority 1998, dated 1999).

What was measured:
[1] = system: glucocorticoid activity
[2] = system: serum testosterone, estradiol and LH; details: observed at all doses (10-50 mg p.o. per day)
[3] = racemic casodex at 30 or 50 mg
[4] = system: peripheral androgen receptors
[5] = estimated from oral studies
[6] = system: prostatic acid phosphatase; details: human volunteers, 10-50 mg p.o. per day
[7] = control of morning sickness during pregnancy
[8] = in vivo
[9] = system: beta-adrenergic; details: L-form versus D-enantiomer
[10] = system: androgen; details: in vivo
[11] = system: progesterone receptors; details: at 5 nm
[12] = system: glucocorticoid receptors; details: at 5 nm

## CC(O)(CS(=O)(=O)c1ccc(F)cc1)C(=O)Nc1ccc(C#N)c(C(F)(F)F)c1 (racemic) [racemic casodex, 4'-cyano-3-[(4-fluorophenyl)sulfonyl]-2-hydroxy-2-methyl-3'-(trifluoromethyl)propionanilide]
[1]
  glucocorticoid activity: no progestational or glucocorticoid activity
[2]
  elevations of serum testosterone, estradiol and LH: Significant but mild elevations
[3]
  patients reporting gynecomastia and breast tenderness: Over half the patients
  patients reporting hot flushes: about 20%
  patients reporting nausea and vomiting, bone pain, confusion, constipation, headache, diarrhea, dyspepsia, fatigue, dizziness or rash: less than 10%
[4]
  agonist component at peripheral androgen receptors: little if any agonist component
[5]
  average half life: about 8 days
[6]
  reduction in prostatic acid phosphatase levels: 50 to 60%

## O=C1CCC(N2C(=O)c3ccccc3C2=O)C(=O)N1 [D-enantiomer of thalidomide, thalidomide]
[7]
  sedative effect: safe and effective sedative

## O=C1CCC(N2C(=O)c3ccccc3C2=O)C(=O)N1 [L-enantiomer of thalidomide, thalidomide]
[8]
  teratogenicity: potent teratogen

## CC(C)NCC(O)COc1cccc2ccccc12 [L-form of propranolol, propranolol]
[9]
  potency relative to the D-enantiomer: 100 times

## C[C@](O)(CS(=O)(=O)c1ccc(F)cc1)C(=O)Nc1ccc(C#N)c(C(F)(F)F)c1 [R-(-)-casodex, N-[4-cyano-3-(trifluoromethyl)phenyl]-3-[(4-fluorophenyl)sulfonyl]-2-hydroxy-2-methylpropanamide]
[10]
  ED50 in inhibiting androgen in rats: 0.5 mg/kg

## C[C@]1(O)CC[C@H]2[C@@H]3CCC4=CC(=O)CCC4=C3C=C[C@@]21C [[^3 H]-R1881, methyltrienolone]
[11]
  binding to progesterone receptors: approximately 5%
[12]
  binding to glucocorticoid receptors: approximately 5%
